Source: US20230391764A1, “BENZOTHIAZOLYL BICYCLO[1.1.1]PENTANE DERIVATIVES FOR THE TREATMENT AND PROPHYLAXIS OF HEPATITIS B VIRUS INFECTION” (Hoffmann-La Roche Inc., priority 2021, published 2023)

Assays:
Format in all cases: cell-based
[1] = system: HBeAg; experiment: PHH HBV natural infection assay, HBeAg (alphalisa); conditions: Hepatitis B virus, 72 h, read-out: HBeAg IC50
Description: (§1) Detailed procedures regarding primary human hepatocyte (PHH) HBV natural infection assay are described as below. One tube of frozen PHH (10 million cells) is thawed in 37° C. water bath and then transferred to 20 mL of PHH thawing medium (Sigma, InVitroGRO HT Medium, Cat. S03319) with gently mixing. The cells were then centrifuged at […] for 5 min, the supernatant was discarded and the tube was refilled with 25 mL of PHH plating medium (Sigma, InVitroGRO CP Medium, Cat. S03317). The tube was shaken very gently to re-suspend all cells, and then 50 μl of cells were transferred to each well 384-well collagen I coated plate with appropriate liquid handling equipment, e.g. Integra VIAFLO384 or Agilent Bravo. The cells were then cultured for 24 hours in a cell incubator. For HBV infection, after PHH attachment on the culture plate, the plating medium was removed and replenished with PHH culture medium containing HBV virus. The PHH culture medium was prepared with Dulbecco's Modified Eagle Medium (DMEM)/F12 (1:1 in volume ratio) containing 10% fetal bovine serum (Gibco, Cat.10099141), 5 ng/mL human epidermal growth factor (Gibco, Cat.PHG0311L), 20 ng/mL dexamethasone (Sigma, Cat.D4902-100 mg), 250 ng/mL human recombinant insulin (Gibco, Cat.41400045) and 100 U/mL penicillin. HBV virus at 200 genome equivalent (GE) per cell with 4% PEG8000 (Sigma, Cat.P1458) containing culture medium were added to the PHH culture medium for infection. The cells were then cultured for 24 hours in cell incubator. Then the cell culture supernatant was removed. The HBV-infected PHH were cultured with sandwich culture method with PHH culture medium containing 1% DMSO and 0.25 mg/mL matrix gel for 72 hours. The supernatant was then refreshed with PHH culture medium containing different concentrations of testing compounds for two times with 72-hour interval. At the end of treatment, the supernatant was collected for viral markers measurements, including HBsAg, HBeAg, HBV DNA and cytotoxicity. HBsAg and HBeAg were detected using alphalisa method using their specific antibodies. For HBV DNA detection, HBV DNA Quantitative Fluorescence Diagnostic Kit (Sansure Biotech Inc.) was used following the manufacture's protocol. Cytotoxicity was determined using Cell Counting Kit-8 (CCK8, Dojindo Molecular Technologies, Inc.).
(§2) The compounds of the present invention were tested for their capacity to inhibit HBsAg and HBeAg as described herein.

[2] = system: HBsAg; experiment: PHH HBV natural infection assay, HBsAg (alphalisa); conditions: Hepatitis B virus, 72 h, read-out: HBsAg IC50
Description: as §1, §2

[3] = PHH natural infection assay, cytotoxicity (Cell Counting Kit-8); conditions: human; HBV-infected PHH, CCK8
Description: as §1

SMILES	IC50 [1] [nM]	IC50 [2] [nM]	CC50 at 144 h [3] [nM]
CS(=O)(=O)C(Br)c1ccc(C(=O)NC23CC(c4nc5cc(Cl)ccc5s4)(C2)C3)o1 (stereo not drawn) [Example 43]	480	500	22800
CCC(c1ccc(C(=O)NC23CC(c4nc5ccc(Cl)cc5s4)(C2)C3)o1)S(C)(=O)=O (stereo not drawn) [Example 14]	150	200	> 10000
CC(c1nsc(C(=O)NC23CC(c4nc5ccc(Cl)cc5s4)(C2)C3)n1)S(C)(=O)=O (stereo not drawn) [Example 31]	630	740	5710
CS(=O)(=O)C1(c2ccc(C(=O)NC34CC(c5nc6cc(Br)ccc6s5)(C3)C4)o2)CC1 [Example 6, N-(3-(5-bromobenzo[d]thiazol-2-yl)bicyclo[1.1.1]pentan-1-yl)-5-(1-(methylsulfonyl)cyclopropyl)furan-2-carboxamide]	100	170	6030
CS(=O)(=O)C1(c2ccn(C(=O)NC34CC(c5nc6cc(Br)ccc6s5)(C3)C4)n2)CC1 [Example 62]	40	70	3830
CS(=O)(=O)C1(c2nc(C(=O)NC34CC(c5nc6ccc(Br)cc6s5)(C3)C4)no2)CC1 [Example 77, N-[3-(6-bromo-1,3-benzothiazol-2-yl)-1-bicyclo[1.1.1]pentanyl]-5-(1-methylsulfonylcyclopropyl)-1,2,4-oxadiazole-3-carboxamide]	620	860	6490
C[C@H](c1ccc(C(=O)NC23CC(c4nc5ccc(Cl)cc5s4)(C2)C3)o1)S(C)(=O)=O (single isomer, unassigned) [Example 56a]	230	230	15000
CC(c1ccc(C(=O)NC23CC(c4nc5cc(Cl)ccc5s4)(C2)C3)o1)S(C)(=O)=O (stereo not drawn) [Example 46]	230	370	15300
CS(=O)(=O)C1(c2ccc(C(=O)NC34CC(c5nc6ccc(F)cc6s5)(C3)C4)o2)CC1 [Example 11]	360	480	16300
CS(=O)(=O)C1(c2ccc(C(=O)NC34CC(c5nc6ccc(Cl)cc6s5)(C3)C4)o2)CC1 [Example 15]	160	210	6330
CC(C)(c1ncc(C(=O)NC23CC(c4nc5ccc(Cl)cc5s4)(C2)C3)o1)S(C)(=O)=O [Example 22]	470	720	7550
C[C@@H](c1ccc(C(=O)NC23CC(c4nc5ccc(Cl)cc5s4)(C2)C3)o1)S(C)(=O)=O (single isomer, unassigned) [Example 56b]	160	190	14700
CS(=O)(=O)Cc1ccc(C(=O)NC23CC(c4nc5ccc(Cl)cc5s4)(C2)C3)o1 [Example 13]	800	1020	> 50000
CC(c1ccn(C(=O)NC23CC(c4nc5ccc(Cl)cc5s4)(C2)C3)n1)S(C)(=O)=O (stereo not drawn) [Example 58, N-[3-(6-chloro-1,3-benzothiazol-2-yl)-1-bicyclo[1.1.1]pentanyl]-3-(1-methylsulfonylethyl)pyrazole-1-carboxamide]	240	340	6060
CC(C)(c1ccn(C(=O)NC23CC(c4nc5ccc(Cl)cc5s4)(C2)C3)n1)S(C)(=O)=O [Example 60]	90	122	4820
CS(=O)(=O)C1(c2ccc(C(=O)NC34CC(c5nc6ccc(C#N)cc6s5)(C3)C4)o2)CC1 [Example 8]	720	790	12500
CC(c1ccc(C(=O)NC23CC(c4nc5ccc(Cl)cc5s4)(C2)C3)o1)S(C)(=O)=O (stereo not drawn) [Example 17, N-[3-(6-chloro-1,3-benzothiazol-2-yl)-1-bicyclo[1.1.1]pentanyl]-5-(1-methylsulfonylethyl)furan-2-carboxamide]	150	170	14600

SMILES	IC50 [1] [nM]	IC50 [2] [nM]	CC50 at 144 h [3] [nM]
CC(C)(c1cc(C(=O)NC23CC(c4nc5ccc(Cl)cc5s4)(C2)C3)sn1)S(C)(=O)=O [Example 27]	650	840	8550
CC(C)(c1ccc(C(=O)NC23CC(c4nc5ccc(Cl)cc5s4)(C2)C3)o1)S(C)(=O)=O [Example 16]	240	290	3760
CC(C)(c1ccc(C(=O)NC23CC(c4nc5cc(Cl)ccc5s4)(C2)C3)o1)S(C)(=O)=O [Example 45]	250	390	9940
CCC(c1ccc(C(=O)NC23CC(c4nc5cc(Cl)ccc5s4)(C2)C3)o1)S(C)(=O)=O (stereo not drawn) [Example 44]	160	230	20400
C#Cc1ccc2nc(C34CC(NC(=O)c5ccc(C6(S(C)(=O)=O)CC6)o5)(C3)C4)sc2c1 [Example 10]	270	370	11000
CS(=O)(=O)C1(c2ncc(C(=O)NC34CC(c5nc6ccc(Cl)cc6s5)(C3)C4)o2)CC1 [Example 67, N-[3-(6-chloro-1,3-benzothiazol-2-yl)-1-bicyclo[1.1.1]pentanyl]-2-(1-methylsulfonylcyclopropyl)oxazole-5-carboxamide]	320	400	7250
CC(n1ccc(C(=O)NC23CC(c4nc5ccc(Cl)cc5s4)(C2)C3)n1)S(C)(=O)=O (stereo not drawn) [Example 34]	390	440	7010
CS(=O)(=O)C1(c2nsc(C(=O)NC34CC(c5nc6ccc(Br)cc6s5)(C3)C4)n2)CC1 [Example 4]	50	70	4220
CS(=O)(=O)C1(c2ccn(C(=O)NC34CC(c5nc6ccc(Cl)cc6s5)(C3)C4)n2)CC1 [Example 63]	80	110	5060
CS(=O)(=O)C(Cl)c1ccc(C(=O)NC23CC(c4nc5cc(Cl)ccc5s4)(C2)C3)o1 (stereo not drawn) [Example 75, 5-(chloro(methylsulfonyl)methyl)-N-(3-(5-chlorobenzo[d]thiazol-2-yl)bicyclo[1.1.1]pentan-1-yl)furan-2-carboxamide]	430	550	16800
CS(=O)(=O)C1(c2noc(C(=O)NC34CC(c5nc6ccc(Cl)cc6s5)(C3)C4)n2)CC1 [Example 76, N-[3-(6-chloro-1,3-benzothiazol-2-yl)-1-bicyclo[1.1.1]pentanyl]-3-(1-methylsulfonylcyclopropyl)-1,2,4-oxadiazole-5-carboxamide]	400	700	4270
CS(=O)(=O)C1(c2ccc(C(=O)NC34CC(c5nc6ccc(Br)cc6s5)(C3)C4)o2)CC1 [Example 2, N-[1-(6-bromo-1,3-benzothiazol-2-yl)-3-bicyclo[1.1.1]pentanyl]-5-(1-methylsulfonylcyclopropyl)furan-2-carboxamide]	110	170	5850
C[S+]([O-])C(C)(C)c1ccc(C(=O)NC23CC(c4nc5cc(Cl)ccc5s4)(C2)C3)o1 (stereo not drawn) [Example 50]	80	100	1640
CS(=O)(=O)C1(c2nsc(C(=O)NC34CC(c5nc6cc(Br)ccc6s5)(C3)C4)n2)CC1 [Example 7]	60	100	8520
CC(C)(c1nsc(C(=O)NC23CC(c4nc5ccc(Cl)cc5s4)(C2)C3)n1)S(C)(=O)=O [Example 32]	330	430	2950
CC(C)(c1ccn(C(=O)NC23CC(c4nc5cc(Br)ccc5s4)(C2)C3)n1)S(C)(=O)=O [Example 61]	80	110	2090
CS(=O)(=O)C1(c2ccc(C(=O)NC34CC(c5nc6cc(Cl)ccc6s5)(C3)C4)o2)CC1 [Example 47]	220	320	6620
